Experiments:
[1] = test system: Ba/F3 HER2 A775insYVMA; experiment: Growth inhibition of Ba/F3 cells engineered to overexpress HER2 A775_G776insYVMA (CellTiter-Glo luminescence); assay type: cell-based; conditions: Mus musculus, BaF3, 72 hours, concentrations 1000 to 0.32 nM, read-out: Ba/F3 HER2^YVMA GI50 class
Method: (§1) Experimental Example: Growth inhibition of Ba/F3 HER2 A775insYVMA and wild-type Ba/F3 cells
(§2) In this Experimental Example, the compounds obtained in Examples 1 to 92 were evaluated for their ability to inhibit growth of cells harboring either the HER2 A775insYVMA mutation or wild-type EGFR. For this purpose, Ba/F3 cells (ATCC, USA) were genetically engineered to overexpress either HER2 A775_G776insYVMA or wild-type EGFR, and the growth of these engineered Ba/F3 cells were monitored in the presence of the compounds described in the Examples to evaluate their effects on growth inhibition.
(§3) Specifically, culture flasks of the engineered Ba/F3 cells suspended in RPMI 1640 medium supplemented with 10% fetal bovine serum (FBS) and 1% penicillin/streptomycin (Gibco BRL, USA) were placed in a cell incubator and incubated at 37°C and 5% CO2 level to allow them to reach a stable logarithmic growth phase. The cells were then harvested by centrifugation to remove the old media and placed into a 96-well plate by dividing them into 100 µL aliquots per well at a dilution of 1×10^5 cells/mL in fresh media. Each of the compounds prepared in the preceding Examples were dissolved in 99.5% (cell culture grade) dimethylsulfoxide (DMSO) to prepare a stock solution of 10 mM concentration, which were serially diluted in the culture medium to final concentrations of 1000, 200, 40, 8, 1.6 and 0.32 nM for HER2 A775insYVMA Ba/F3 cells and concentrations of 10000, 5000, 1000, 200, 40 and 8 nM for wild-type EGFR overexpressing Ba/F3 cells.
(§4) To each aliquot of cells in the 96-well plate, a 50 µL test solution comprising one of the compounds was added to result in each well a 150 µL volume of cells with a compound in a final concentration ranging from 10 µM to 0.32 nM. The Ba/F3 cells treated with the test solution were incubated for 72 hours at 37°C and 5% CO2 level and underwent a 30-minute acclimation by placing the 96-well plate carrying the cells in ambient temperature. Thereafter, to each well was added 50 µL CellTiter-Glo® Luminescent Cell Assay Reagent (CTG, Promega, USA). After allowing 10 minutes to stabilize the signal, luminescence intensity was measured using a microplate reader. The half-maximal growth inhibition concentration (GI50) was calculated from the luminescence readout of the test compounds with the difference between the initial and final cell densities for the well untreated with a compound set at 100% growth. Nonlinear regression analysis based on log[inhibitor] vs. normalized response mode of the Graph Prism software was used for calculating GI50 for each compound, which are summarized in Table 6. The calculated GI50 values are classified in Table 6 into four categories: A for GI50 values less than 100 nM, B for GI50 values more than 100 nM but less than 1,000 nM, C for GI50 values more than 1,000 nM but less than 5,000 nM, and D for GI50 values of more than 5,000 nM.

[2] = test system: wild-type EGFR overexpressing Ba/F3 cells; experiment: Growth inhibition of Ba/F3 cells engineered to overexpress wild-type EGFR (CellTiter-Glo luminescence); assay type: cell-based; conditions: Mus musculus, BaF3, 72 hours, concentrations 10000 to 8 nM, read-out: Ba/F3 EGFR^WT GI50 class
Method: as §1, §2, §3, §4

SMILES	GI50 [1] [nM]	GI50 [2] [nM]
C=CC(=O)N(C)C/C=C/c1ncc2ncnc(Nc3ccc(Oc4ccc5c(c4)ncn5C)c(C)c3)c2n1 [Example 24, (E)-N-methyl-N-(3-(8-((3-methyl-4-((1-methyl-1H-benzo[d]imidazol-5-yl)oxy)phenyl)amino)pyrimido[5,4-d]pyrimidin-2-yl)allyl)acrylamide]	< 100	1000 to 5000
C=CC(=O)NC/C=C/c1ccc2ncnc(Nc3ccc(Oc4ccn5ccnc5c4)c(C)c3)c2n1 [Example 39, (E)-N-(3-(4-((4-(imidazo[1,2-a]pyridin-7-yloxy)-3-methylphenyl)amino)pyrido[3,2-d]pyrimidin-6-yl)allyl)acrylamide]	< 100	100 to 1000
C=CC(=O)N1CC(/C=C/c2ccc3ncnc(Nc4ccc(Oc5cnc6c(c5)ncn6C)c(C)c4)c3n2)C1 [Example 44]	< 100	> 5000
C=CC(=O)N1CC(/C=C/c2ccc3ncnc(Nc4ccc(Oc5ccc6cn(C)nc6c5)c(C)c4)c3n2)C1 [Example 48, (E)-1-(3-(2-(4-((3-methyl-4-((2-methyl-2H-indazol-6-yl)oxy)phenyl)amino)pyrido[3,2-d]pyrimidin-6-yl)vinyl)azetidin-1-yl)prop-2-en-1-one]	100 to 1000	> 5000
C/C=C/C(=O)N(C)C/C=C/c1ccc2ncnc(Nc3ccc(Oc4ccc5c(c4)ncn5C)c(C)c3)c2n1 [Example 31, (E)-N-methyl-N-((E)-3-(4-((3-methyl-4-((1-methyl-1H-benzo[d]imidazol-5-yl)oxy)phenyl)amino)pyrido[3,2-d]pyrimidin-6-yl)allyl)but-2-enamide]	100 to 1000	1000 to 5000
Cc1cc(Nc2ncnc3ccc(/C=C/CNC(=O)/C=C/[C@H]4CCCN4C)nc23)ccc1Oc1ccc2c(c1)ncn2C [Example 58, (E)-N-((E)-3-(4-((3-methyl-4-((1-methyl-1H-benzo[d]imidazol-5-yl)oxy)phenyl)amino)pyrido[3,2-d]pyrimidin-6-yl)allyl)-3-((R)-1-methylpyrrolidin-2-yl)acrylamide]	100 to 1000	1000 to 5000
C=CC(=O)N1CCCC[C@H]1C#Cc1ncc2ncnc(Nc3ccc(Oc4ccc5c(c4)ncn5C)c(C)c3)c2n1 [Example 92, (S)-1-(2-((8-((3-methyl-4-((1-methyl-1H-benzo[d]imidazol-5-yl)oxy)phenyl)amino)pyrimido[5,4-d]pyrimidin-2-yl)ethynyl)piperidin-1-yl)prop-2-en-1-one]	100 to 1000	100 to 1000
C=CC(=O)N(C)c1cccc(/C=C/c2ccc3ncnc(Nc4ccc(Oc5ccc6c(c5)ncn6C)c(C)c4)c3n2)c1 [Example 63, (E)-N-methyl-N-(3-(2-(4-((3-methyl-4-((1-methyl-1H-benzo[d]imidazol-5-yl)oxy)phenyl)amino)pyrido[3,2-d]pyrimidin-6-yl)vinyl)phenyl)acrylamide]	100 to 1000	1000 to 5000
C=CC(=O)N(C)CC/C=C/c1ccc2ncnc(Nc3ccc(Oc4ccc5c(c4)ncn5C)c(C)c3)c2n1 [Example 26, (E)-N-methyl-N-(4-(4-((3-methyl-4-((1-methyl-1H-benzo[d]imidazol-5-yl)oxy)phenyl)amino)pyrido[3,2-d]pyrimidin-6-yl)but-4-en-1-yl)acrylamide]	< 100	1000 to 5000
C=CC(=O)N1CCC[C@H]1C#Cc1ncc2ncnc(Nc3ccc(Oc4ccn5ncnc5c4)c(C)c3)c2n1 [Example 84, (S)-1-(2-((8-((4-([1,2,4]triazolo[1,5-a]pyridin-7-yloxy)-3-methylphenyl)amino)pyrimido[5,4-d]pyrimidin-2-yl)ethynyl)pyrrolidin-1-yl)prop-2-en-1-one]	< 100	100 to 1000
C=CC(=O)NCCOc1ccc2ncnc(Nc3ccc(Oc4ccc5c(c4)ncn5C)c(C)c3)c2n1 [Example 7, N-(2-((4-((3-methyl-4-((1-methyl-1H-benzo[d]imidazol-5-yl)oxy)phenyl)amino)pyrido[3,2-d]pyrimidin-6-yl)oxy)ethyl)acrylamide]	100 to 1000	> 5000
C=CC(=O)N(C)CCOc1ccc2ncnc(Nc3ccc(Oc4ccc5c(c4)ncn5C)c(C)c3)c2n1 [Example 6, N-methyl-N-(2-((4-((3-methyl-4-((1-methyl-1H-benzo[d]imidazol-5-yl)oxy)phenyl)amino)pyrido[3,2-d]pyrimidin-6-yl)oxy)ethyl)acrylamide]	< 100	> 5000
Cc1cc(Nc2ncnc3ccc(/C=C/CN(C)C(=O)/C=C/CN(C)C)nc23)ccc1Oc1ccc2c(c1)ncn2C [Example 32, (E)-4-(dimethylamino)-N-methyl-N-((E)-3-(4-((3-methyl-4-((1-methyl-1H-benzo[d]imidazol-5-yl)oxy)phenyl)amino)pyrido[3,2-d]pyrimidin-6-yl)allyl)but-2-enamide]	100 to 1000	> 5000
C=CC(=O)N(C)CCOc1cc2c(Nc3ccc(Oc4ccn5ncnc5c4)c(C)c3)ncnc2cc1OC [Example 2, N-(2-((4-((4-([1,2,4]triazolo[1,5-a]pyridin-7-yloxy)-3-methylphenyl)amino)-7-methoxyquinazolin-6-yl)oxy)ethyl)-N-methylacrylamide]	< 100	100 to 1000
C=CC(=O)N(C)CCCNc1ccc2ncnc(Nc3ccc(Oc4ccc5c(c4)ncn5C)c(C)c3)c2n1 [Example 17, N-methyl-N-(3-((4-((3-methyl-4-((1-methyl-1H-benzo[d]imidazol-5-yl)oxy)phenyl)amino)pyrido[3,2-d]pyrimidin-6-yl)amino)propyl)acrylamide]	< 100	> 5000

Next, values leading:

GI50 [1] [nM]	GI50 [2] [nM]	SMILES
< 100	< 100	C=CC(=O)N1CCCC[C@H]1C#Cc1ccc2ncnc(Nc3ccc(Oc4ccn5ncnc5c4)c(C)c3)c2c1 [Example 77, (S)-1-(2-((4-((4-([1,2,4]triazolo[1,5-a]pyridin-7-yloxy)-3-methylphenyl)amino)quinazolin-6-yl)ethynyl)piperidin-1-yl)prop-2-en-1-one]
100 to 1000	1000 to 5000	C=CC(=O)N(C)CCOc1ncc2ncnc(Nc3ccc(Oc4ccc5c(c4)ncn5C)c(C)c3)c2n1 [Example 8, N-methyl-N-(2-((8-((3-methyl-4-((1-methyl-1H-benzo[d]imidazol-5-yl)oxy)phenyl)amino)pyrimido[5,4-d]pyrimidin-2-yl)oxy)ethyl)acrylamide]
< 100	1000 to 5000	C=CC(=O)NCCOc1ccc2ncnc(Nc3ccc(Oc4ccc5c(c4)ncn5C)c(C)c3)c2c1 [Example 10, N-(2-((4-((3-methyl-4-((1-methyl-1H-benzo[d]imidazol-5-yl)oxy)phenyl)amino)quinazolin-6-yl)oxy)ethyl)acrylamide]
< 100	> 5000	C=CC(=O)N(C)C/C=C/c1ccc2ncnc(Nc3ccc(Oc4ccc5c(c4)ncn5C)c(F)c3)c2n1 [Example 55, (E)-N-(3-(4-((3-fluoro-4-((1-methyl-1H-benzo[d]imidazol-5-yl)oxy)phenyl)amino)pyrido[3,2-d]pyrimidin-6-yl)allyl)-N-methylacrylamide]
< 100	> 5000	C=CC(=O)N1CC(/C=C/c2ccc3ncnc(Nc4cc(C)c(Oc5ccc6c(c5)ncn6C)cc4F)c3n2)C1 [Example 45]
< 100	1000 to 5000	C=CC(=O)N1CCC[C@@H]1C#Cc1ccc2ncnc(Nc3ccc(OC4=CC5N=CN(C)C5C=C4)c(C)c3)c2n1 (stereo partly drawn) [Example 86, 1-((2R)-2-((4-((3-methyl-4-((1-methyl-3a,7a-dihydro-1H-benzo[d]imidazol-5-yl)oxy)phenyl)amino)pyrido[3,2-d]pyrimidin-6-yl)ethynyl)pyrrolidin-1-yl)prop-2-en-1-one]
< 100	1000 to 5000	C=CC(=O)N1CCCC[C@@H]1C#Cc1ccc2ncnc(Nc3ccc(Oc4ccc5c(c4)ncn5C)c(C)c3)c2n1 [Example 88, (R)-1-(2-((4-((3-methyl-4-((1-methyl-1H-benzo[d]imidazol-5-yl)oxy)phenyl)amino)pyrido[3,2-d]pyrimidin-6-yl)ethynyl)piperidin-1-yl)prop-2-en-1-one]

Reference: patent EP4782450A1, “NOVEL SKELETAL DERIVATIVE EFFECTIVE FOR HER2 MUTATION, AND PHARMACEUTICAL COMPOSITION COMPRISING SAME” (Hanmi Pharm. Co., Ltd., priority 2023, dated 2025)
